The assay deals with SARS-CoV-2 3CL-protease (Severe acute respiratory syndrome coronavirus 2, UniProt P0DTD1). In words: SARS-CoV-2 3C-Like (3CL) Protease Fluorescence Assay (FRET). It counts as biochemical. The conditions noted are these: SARS-CoV-2 3CL-protease 10 nM, 30 min preincubation at RT, substrate 40 μM.
Regarding `CC(C)C[C@@H](C(=O)N1C[C@]2(C[C@H]1C#N)C(=O)Nc1ccc(-c3cnoc3)cc12)N(C)C(=O)c1cc2c(F)cc(F)cc2[nH]1` [Example 515], the half-inhibitory concentration (IC50) was less than 100 nM.
Take `CC(C)C[C@@H](C(=O)N1C[C@]2(C[C@H]1C#N)C(=O)Nc1ccccc12)N(C)C(=O)[C@H](c1cnn(C)c1)C(C)C` [Example 349]: the IC50 is less than 100 nM.
The figure for `CC(C)C[C@@H](C(=O)N1C[C@]2(C[C@H]1C#N)C(=O)Nc1ccccc12)N(C)C(=O)c1nc2ccccc2s1` [Example 206] is 100 to 1000 nM.
On to `CC(C)(C)C[C@H](NC(=O)c1cc(OC(F)(F)F)c2ncccc2c1)C(=O)N1C[C@]2(C[C@H]1C#N)C(=O)Nc1ccccc12` [Example 137], for which the half-inhibitory concentration (IC50) is less than 100 nM.
In turn, `CC(C)C[C@@H](C(=O)N1C[C@]2(C[C@H]1C#N)C(=O)Nc1ccccc12)N(C)C(=O)c1ccc2ncccc2c1F` [Example 330] had a 50% inhibitory concentration (IC50) of less than 100 nM.
The figure for `C[C@@H](C(=O)N(C)[C@@H](CC(C)(C)C)C(=O)N1C[C@]2(C[C@H]1C#N)C(=O)Nc1ccccc12)c1cnn(C)c1` [Example 372] is less than 100 nM; for `COc1cc(C(=O)N(C)[C@@H](CC(C)C)C(=O)N2C[C@]3(C[C@H]2C#N)C(=O)Nc2ccccc23)nc2ccccc12` [Example 258] it is 100 to 1000 nM; for `[2H]C([2H])([2H])N(C(=O)c1cn(C2CC2)nn1)[C@@H](CC(C)(C)C)C(=O)N1C[C@]2(C[C@H]1C#N)C(=O)Nc1ccccc12` [Example 378] it is less than 100 nM.
As for `CC(C)C[C@@H](C(=O)N1C[C@]2(C[C@H]1C#N)C(=O)Nc1ccccc12)N(C)C(=O)CCc1ccccc1` [Example 227], the figure is less than 100 nM.
The figure for `CC(C)C[C@@H](C(=O)N1C[C@]2(C[C@H]1C#N)C(=O)Nc1ccccc12)N(C)C(=O)c1ccc2ncccc2c1` [Example 210] is less than 100 nM.
Molecule `Cc1ccc2cc(C(=O)N(C)[C@@H](CC3CC3)C(=O)N3C[C@]4(C[C@H]3C#N)C(=O)Nc3ccc(Cl)cc34)[nH]c2n1` [Example 462] returned an IC50 of less than 100 nM.
As for `[2H]C([2H])([2H])N(C(=O)c1cnn(-c2ccc(C(F)(F)F)cc2)c1)[C@@H](CC1CC1)C(=O)N1C[C@]2(C[C@H]1C#N)C(=O)Nc1ccccc12` [Example 396], the figure is less than 100 nM; as for `CC(C)C[C@@H](C(=O)N1C[C@]2(C[C@H]1C#N)C(=O)Nc1ccccc12)N(C)C(=O)c1cc(OC2CC2)c2nc(Cl)ccc2c1` [Example 310], less than 100 nM; as for `CN(C(=O)c1cc2ccncc2[nH]1)[C@@H](CC1CC1)C(=O)N1C[C@]2(C[C@H]1C#N)C(=O)Nc1ccc(Cl)cc12` [Example 458], less than 100 nM.
The figure for `Cc1cnc2[nH]c(C(=O)N(C)[C@@H](CC3CC3)C(=O)N3C[C@]4(C[C@H]3C#N)C(=O)Nc3ccc(Cl)cc34)cc2c1` [Example 461] is less than 100 nM; for `CC(C)C[C@@H](C(=O)N1C[C@]2(C[C@H]1C#N)C(=O)Nc1ccccc12)N(C)C(=O)c1ccnn1C` [Example 203] it is less than 100 nM.
As for `CC(C)C[C@@H](C(=O)N1C[C@]2(C[C@H]1C#N)C(=O)Nc1ccccc12)N(C)C(=O)c1nc2ccccc2n1C` [Example 282], the figure is 100 to 1000 nM; as for `COc1cc(C(=O)N(C)[C@@H](CC(C)C)C(=O)N2C[C@]3(C[C@H]2C#N)C(=O)Nc2ccccc23)cc2cn(C3(C)CC3)nc12` [Example 319], less than 100 nM.
In turn, `CC(C)C[C@H](NC(=O)O[C@@H](c1ccccc1)C(F)(F)F)C(=O)N1C[C@]2(C[C@H]1C#N)C(=O)Nc1ccc(F)cc12` [Example 527, (S)-2,2,2-trifluoro-1-phenylethyl ((S)-1-((3R,5′S)-5′-cyano-5-fluoro-2-oxospiro[indoline-3,3′-pyrrolidin]-1′-yl)-4-methyl-1-oxopentan-2-yl)carbamate] returned an IC50 of less than 100 nM.
In the case of `CC(C)(C)C[C@H](NC(=O)c1cn(-c2ccc(Cl)cc2)nn1)C(=O)N1C[C@]2(C[C@H]1C#N)C(=O)Nc1ccccc12` [Example 140], the IC50 fell in the range of 100 to 1000 nM.
As for `CC(C)(C)C[C@H](NC(=O)c1cc(OC(F)F)c2ncccc2c1)C(=O)N1C[C@]2(C[C@H]1C#N)C(=O)Nc1ccccc12` [Example 139], the figure is less than 100 nM.
In turn, `[2H]C([2H])([2H])N(C(=O)c1cnn(C(C)(C)C)c1C(F)(F)F)[C@@H](CC1CC1)C(=O)N1C[C@]2(C[C@H]1C#N)C(=O)Nc1ccccc12` [Example 400] displayed a half-inhibitory concentration (IC50) of less than 100 nM.
`[2H]C([2H])([2H])N(C(=O)c1cn(C2CC2)nn1)[C@@H](Cc1ccc(F)cc1)C(=O)N1C[C@]2(C[C@H]1C#N)C(=O)Nc1ccccc12` [Example 391]: the 50% inhibitory concentration (IC50) is less than 100 nM.
For the molecule `CC(C)C[C@@H](C(=O)N1C[C@]2(C[C@H]1C#N)C(=O)Nc1ccccc12)N(C)C(=O)c1ccc(F)c(-c2ccccc2)c1` [Example 272], the IC50 was in the range of 100 to 1000 nM.
On to `CC(C)C[C@@H](C(=O)N1C[C@]2(C[C@H]1C#N)C(=O)Nc1ncccc12)N(C)C(=O)c1cc2c(F)cc(F)cc2[nH]1` [Example 549], for which the concentration for half-maximal inhibition (IC50) is less than 100 nM.
Molecule `Cc1ccc2c(c1)[C@@]1(C[C@@H](C#N)N(C(=O)[C@H](CC(C)C)N(C)C(=O)OCc3ccccc3)C1)C(=O)N2` [Example 518, benzyl ((S)-1-((3R,5′S)-5′-cyano-5-methyl-2-oxospiro[indoline-3,3′-pyrrolidin]-1′-yl)-4-methyl-1-oxopentan-2-yl)(methyl)carbamate] came in with a concentration for half-maximal inhibition (IC50) of less than 100 nM.
With `CC(C)C[C@@H](C(=O)N1C[C@]2(C[C@H]1C(O)S(=O)(=O)O)C(=O)Nc1ccccc12)N(C)C(=O)c1cc2c(F)cc(F)cc2[nH]1` (stereo partly shown) [Example 153], the IC50 was less than 100 nM.
As for `CC(C)C[C@@H](C(=O)N1C[C@]2(C[C@H]1C#N)C(=O)Nc1ccccc12)N(C)C(=O)c1cccc2cccnc12` [Example 296], the figure is 100 to 1000 nM.
The figure for `CC(C)C[C@@H](C(=O)N1C[C@]2(C[C@H]1C#N)C(=O)Nc1ccc(-c3ccc(F)cc3)cc12)N(C)C(=O)c1cc2c(F)cc(F)cc2[nH]1` [Example 511] is less than 100 nM; for `CC(C)(C)C[C@H](NC(=O)Nc1ccc(F)cc1)C(=O)N1C[C@]2(C[C@H]1C#N)C(=O)Nc1ccccc12` [Example 441] it is 100 to 1000 nM; for `CC(C)C[C@@H](C(=O)N1C[C@]2(C[C@H]1C#N)C(=O)Nc1ccccc12)N(C)C(=O)c1ccc2c(Br)cccc2n1` [Example 231] it is 100 to 1000 nM.
The molecule `CC(C)C[C@@H](C(=O)N1C[C@]2(C[C@H]1C#N)C(=O)Nc1ccccc12)N(C)C(=O)c1cc(OC(F)(F)F)c2ncccc2c1` [Example 322] showed an IC50 of less than 100 nM.
As to `CC(C)C[C@@H](C(=O)N1C[C@]2(C[C@H]1C#N)C(=O)Nc1ccccc12)N(C)C(=O)c1cncc(C(F)(F)F)c1` [Example 195], the IC50 is less than 100 nM.
Turning to `COc1cccc(CN(C(=O)C(F)(F)F)[C@@H](CC(C)C)C(=O)N2C[C@]3(C[C@H]2C#N)C(=O)Nc2ccccc23)c1` [Example 430], the half-maximal inhibitory concentration (IC50) was greater than 1000 nM.
As for `CC(C)C[C@@H](C(=O)N1C[C@]2(C[C@H]1C#N)C(=O)Nc1ccccc12)N(C)C(=O)c1cc(-c2ccccc2)ccc1Cl` [Example 262], the figure is 100 to 1000 nM; as for `CC(C)(C)C[C@H](NC(=O)c1cc2c(Cl)cccc2[nH]1)C(=O)N1C[C@]2(C[C@H]1C#N)C(=O)Nc1ccc(Cl)cc12` [Example 450], less than 100 nM.
As for `CC(C)C[C@@H](C(=O)N1C[C@]2(C[C@H]1C#N)C(=O)Nc1ccccc12)N(C)C(=O)c1cccc(-c2ccccc2F)c1` [Example 264], the figure is 100 to 1000 nM; as for `Cc1cc2cc(C(=O)N(C)[C@@H](CC(C)C)C(=O)N3C[C@]4(C[C@H]3C#N)C(=O)Nc3ccccc34)cc(OC(F)(F)F)c2nc1C` [Example 238], less than 100 nM.
As to `CN(C(=O)c1cc2ncccc2[nH]1)[C@@H](CC1CC1)C(=O)N1C[C@]2(C[C@H]1C#N)C(=O)Nc1ccc(Cl)cc12` [Example 456], the concentration for half-maximal inhibition (IC50) was less than 100 nM.
With `CC(C)C[C@@H](C(=O)N1C[C@]2(C[C@H]1C(=O)C(=O)NC1CCCCC1)C(=O)Nc1ccccc12)N(C)C(=O)c1cc2c(F)cc(F)cc2[nH]1` [Example 155], the IC50 is greater than 1000 nM.
The figure for `CC(C)C[C@@H](C(=O)N1C[C@]2(C[C@H]1C#N)C(=O)Nc1ccccc12)N(C)C(=O)Cc1ccccc1` [Example 226] is less than 100 nM.
As for `CC(C)C[C@@H](C(=O)N1C[C@]2(C[C@H]1C#N)C(=O)Nc1ccccc12)N(C)C(=O)c1ccc2ncc(C(F)(F)F)cc2c1` [Example 237], the figure is less than 100 nM; as for `CC(C)C[C@@H](C(=O)N1C[C@]2(C[C@H]1C#N)C(=O)Nc1ccccc12)N(C)C(=O)c1ccc(Cl)c(Cl)c1` [Example 166], less than 100 nM; as for `CC(C)C[C@@H](O)C(=O)N(C)[C@@H](CC1CC1)C(=O)N1C[C@]2(C[C@H]1C#N)C(=O)Nc1ccccc12` [Example 424], less than 100 nM.
As for `CC(C)C[C@@H](C(=O)N1C[C@]2(C[C@H]1C#N)C(=O)Nc1ccccc12)N(C)C(=O)N1Cc2cn[nH]c2C1` [Example 434], the figure is 100 to 1000 nM; as for `CN(C(=O)c1ccn(C2CC2)n1)[C@@H](Cc1ccccc1)C(=O)N1C[C@]2(C[C@H]1C#N)C(=O)Nc1ccccc12` [Example 361], less than 100 nM; as for `CC(C)C[C@@H](C(=O)N1C[C@]2(C[C@H]1C#N)C(=O)Nc1ccc(-c3ccn(C(F)F)n3)cc12)N(C)C(=O)c1cc2c(F)cc(F)cc2[nH]1` [Example 514], less than 100 nM.
With `CC(C)C[C@@H](C(=O)N1C[C@]2(C[C@H]1C#N)C(=O)Nc1ccccc12)N(C)C(=O)c1ccn(C)n1` [Example 204], the IC50 fell in the range of 100 to 1000 nM.
As for `CC(C)C[C@@H](C(=O)N1C[C@]2(C[C@H]1C#N)C(=O)Nc1ccccc12)N(C)C(=O)c1ccc2nn(C3CC3)cc2c1` [Example 339], the figure is 100 to 1000 nM; as for `CN(C(=O)c1cc2c(F)cc(F)cc2[nH]1)[C@@H](Cc1cccc(F)c1)C(=O)N1C[C@]2(C[C@H]1C#N)C(=O)Nc1ccccc12` [Example 389], less than 100 nM; as for `CC(C)(C)C[C@H](NC(=O)Nc1ccc2ccccc2c1)C(=O)N1C[C@]2(C[C@H]1C#N)C(=O)Nc1ccccc12` [Example 439], 100 to 1000 nM.
Consider `CN(C(=O)C1(c2cccnc2)CC1)[C@@H](CC(C)(C)F)C(=O)N1C[C@]2(C[C@H]1C#N)C(=O)Nc1ccc(Cl)cc12` [Example 479], for which the half-inhibitory concentration (IC50) was less than 100 nM.

What is called IC50 is the concentration that inhibits the measured activity by half. The low end stands for inhibition by little substance, the high end for a need for much substance.
